The values that follow come from ChEMBL document CHEMBL3870327, “Thioxylated cyclosporin A for studying protein-drug interactions” (Bioorg Med Chem Lett, 2016).

Calls of active or inactive are those of the source. No cut-off for these calls is given here. *1 amine or outer side, *2 acyl side, *3 side chain or, on linkers, in order; H or OH if unused. Where a SMILES comes first, the peptide text is derived from it. [ ]: non-standard residue; d: D form. X1 = CC(C)C[C@@H](C(=S)N[C@H](C(=O)[*:2])C(C)C)N(C)[*:1]; AlaΨ(CSNH)dAla = C[C@H](N[*:1])C(=S)N[C@H](C)C(=O)[*:2]; MeBmt = C/C=C/C[C@@H](C)[C@@H](O)[C@H](NC)C(=O)O; NMeL = CN[C@@H](CC(C)C)C(=O)O; NMeV = CN[C@H](C(=O)O)C(C)C; Abu = CC[C@H](N)C(=O)O; Sar = CNCC(=O)O

For experiment [1], the target named is T1, Peptidyl-prolyl cis-trans isomerase A (Homo sapiens, UniProt P62937). As to the kind of experiment: Binding affinity to recombinant His-tagged Cyp18 (unknown origin) expressed in Escherichia coli BL21(DE3) assessed as dissociation rate constant in presence of 20-fold excess of cyclosporin A by fluorescence assay.
Target sequence in this assay (P62937 whole entry, looked up): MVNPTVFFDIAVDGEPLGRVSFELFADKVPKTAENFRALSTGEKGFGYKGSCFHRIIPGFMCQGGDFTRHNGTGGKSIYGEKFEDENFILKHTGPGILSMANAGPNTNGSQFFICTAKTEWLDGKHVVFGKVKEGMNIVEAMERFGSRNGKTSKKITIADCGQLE
For experiment [2], the target named is T1, Peptidyl-prolyl cis-trans isomerase A. As to the kind of experiment: Binding affinity to recombinant His-tagged Cyp18 (unknown origin) expressed in Escherichia coli BL21(DE3) assessed as inhibition of recombinant human His6-tagged calcineurin alpha phosphatase actvity using RII phosphopeptide as substrate by measuring amount of free phosphate at 10 uM preincubated for 20 mins followed by substrate addition measured after 30 mins in presence of human calmodulin by malachite green dye-based spectrophotometry relative to control.
Target sequence in this assay (P62937 whole entry, looked up): as above

The target is the same in experiment [3]. As to the kind of experiment: Binding affinity to Cyp18 (unknown origin) assessed as association rate constant of fast phase by stopped flow method.
Target sequence in this assay (P62937 whole entry, looked up): as above
Experiment [4] shares this target. As to the kind of experiment: Binding affinity to recombinant His-tagged Cyp18 (unknown origin) expressed in Escherichia coli BL21(DE3) assessed as blue shift by UV absorbance method.
Target sequence in this assay (P62937 whole entry, looked up): as above
Experiment [5] shares this target. As to the kind of experiment: Binding affinity to recombinant His-tagged Cyp18 (unknown origin) expressed in Escherichia coli BL21(DE3) by fluorescence analysis.
Target sequence in this assay (P62937 whole entry, looked up): as above
The target is the same in experiment [6]. As to the kind of experiment: Inhibition of recombinant His-tagged Cyp18 (unknown origin) expressed in Escherichia coli BL21(DE3) up to 1000 nM.
Target sequence in this assay (P62937 whole entry, looked up): as above
The target is the same in experiment [7]. As to the kind of experiment: Binding affinity to Cyp18 (unknown origin) by fluorescence assay.
Target sequence in this assay (P62937 whole entry): as the sequence (P62937 whole entry, looked up) above

Consider `C/C=C/C[C@@H](C)[C@@H](O)[C@H]1C(=O)N[C@@H](CC)C(=O)N(C)CC(=O)N(C)[C@@H](CC(C)C)C(=O)N[C@@H](C(C)C)C(=O)N(C)[C@@H](CC(C)C)C(=O)N[C@@H](C)C(=S)N[C@H](C)C(=O)N(C)[C@@H](CC(C)C)C(=O)N(C)[C@@H](CC(C)C)C(=O)N(C)[C@@H](C(C)C)C(=O)N1C` (HELM PEPTIDE1{[Abu].[Sar].[meL].V.[meL].[C[C@H](N[*:1])C(=S)N[C@H](C)C(=O)[*:2]].[meL].[meL].[meV].[C/C=C/C[C@@H](C)[C@@H](O)[C@@H](C(=O)[*:2])N(C)[*:1]]}$PEPTIDE1,PEPTIDE1,1:R1-10:R2$$$V2.0), for which the K in experiment [1] is 6.32 ×10⁻² /s; in experiment [3], 8.34 ×10⁶ /M/s. Further, the outcome in experiment [2], in experiment [4] and in experiment [5] was Active. In addition, in experiment [6], the inhibition entry is “Active”. Besides, the Kd in experiment [7] was determined as 8.2 nM.
Turning to `C/C=C/C[C@@H](C)[C@@H](O)[C@H]1C(=O)N[C@@H](CC)C(=O)N(C)CC(=O)N(C)[C@@H](CC(C)C)C(=S)N[C@@H](C(C)C)C(=O)N(C)[C@@H](CC(C)C)C(=O)N[C@@H](C)C(=O)N[C@H](C)C(=O)N(C)[C@@H](CC(C)C)C(=O)N(C)[C@@H](CC(C)C)C(=O)N(C)[C@@H](C(C)C)C(=O)N1C`, the result in experiment [2], in experiment [4] and in experiment [5] was Active. In addition, in experiment [6], the inhibition result is “Active”.
In the case of `C/C=C/C[C@@H](C)[C@@H](O)[C@H]1C(=O)N[C@@H](CC)C(=O)N(C)CC(=O)N(C)[C@@H](CC(C)C)C(=S)N[C@@H](C(C)C)C(=O)N(C)[C@@H](CC(C)C)C(=O)N[C@@H](C)C(=S)N[C@H](C)C(=O)N(C)[C@@H](CC(C)C)C(=O)N(C)[C@@H](CC(C)C)C(=O)N(C)[C@@H](C(C)C)C(=O)N1C` (cyclo([Abu][Sar][X1][NMeL][AlaΨ(CSNH)dAla][NMeL][NMeL][NMeV][MeBmt])), the result in experiment [2], in experiment [4] and in experiment [5] was Active. Further, the inhibition result in experiment [6] is “Active”.
